Assay [1] has as its target T1, AHR (Mus musculus, UniProt P30561).
T1 sequence (P30561 1-848 F348L/P471L): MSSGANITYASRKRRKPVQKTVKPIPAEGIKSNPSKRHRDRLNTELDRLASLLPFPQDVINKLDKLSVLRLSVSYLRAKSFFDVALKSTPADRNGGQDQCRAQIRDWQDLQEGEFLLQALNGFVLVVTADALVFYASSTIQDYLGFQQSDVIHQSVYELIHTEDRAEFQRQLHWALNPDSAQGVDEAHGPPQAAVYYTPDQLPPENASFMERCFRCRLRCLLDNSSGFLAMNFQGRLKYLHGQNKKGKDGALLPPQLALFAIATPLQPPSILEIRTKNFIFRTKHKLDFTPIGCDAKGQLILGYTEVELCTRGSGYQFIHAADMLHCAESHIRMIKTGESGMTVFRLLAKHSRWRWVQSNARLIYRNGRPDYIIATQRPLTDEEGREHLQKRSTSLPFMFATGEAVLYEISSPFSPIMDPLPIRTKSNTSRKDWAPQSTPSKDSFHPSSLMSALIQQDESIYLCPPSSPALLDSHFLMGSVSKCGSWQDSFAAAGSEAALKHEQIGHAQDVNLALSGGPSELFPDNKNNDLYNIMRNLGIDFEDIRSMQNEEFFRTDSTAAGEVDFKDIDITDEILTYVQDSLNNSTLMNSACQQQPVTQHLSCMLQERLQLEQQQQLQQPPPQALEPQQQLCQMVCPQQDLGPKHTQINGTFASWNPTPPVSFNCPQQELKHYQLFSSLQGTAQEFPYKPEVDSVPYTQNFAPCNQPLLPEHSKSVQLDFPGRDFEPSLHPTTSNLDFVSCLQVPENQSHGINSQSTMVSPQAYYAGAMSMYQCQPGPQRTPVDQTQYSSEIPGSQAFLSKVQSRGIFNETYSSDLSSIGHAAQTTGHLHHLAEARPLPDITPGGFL
In words: DRE-Luciferase Reporter Assay, Hepa1.6 (agonist). The settings on record: Hepa1.6, Table 3; read-out: DRE-Luc Hepa1.6 - Agonist: Average EC50. It counts as cell-based, murine. As to the method:
DRE-Luciferase Reporter Assay
AHR binds to Dioxin Responsive Elements (DRE) upstream of genes that it activates. One measure of AHR activity is activation of a reporter gene, such as luciferase, downstream of one or multiple DRE elements. Luciferase activity reflects activation and inhibition of AHR in the cells expressing this reporter.
Murine Hepa1-6 or Hepa-1c1c7 or other murine cell line with a DRE-luciferase reporter either stably or transiently transfected are plated in media in plates (96-well, 384-well or other plates) and incubated overnight at 37 C in a CO2 incubator. Likewise, human HepG2 or other human cell line with a DRE-luciferase reporter either stably or transiently transfected are plated in media in plates (96-well, 384-well or other plates) and incubated overnight at 37 C in a CO2 incubator.
The next day, an AHR agonist compound is added. Cells are incubated for 6, 16 or 24 hours or another time point and then lysed for determination of luciferase activity as a read-out of the AHR activation. Luciferase can be measured with a commercial kit such as the Promega Luciferase kit or any kit or reagents that provide the luciferin substrate for measuring luciferase activity. The level of luciferase with only activating ligand (e.g. such as TCDD, kynurenine, ITE (2-(1H-indole-3-ylcarbonyl)-4-thiazolecarboxylic methyl ester), VAF347, BNF (beta-naphthoflavone), ICZ (6-formylindolo(3,2-b) carbazole or other AHR ligands) added is the maximum signal while the luciferase with no ligand is the minimum signal. EC50s can be determined as the concentration which activates half of the maximum luciferase activity.
For orientation: In a reporter assay the amount or activity of a reporter protein is the signal.

The target of assay [2] is T2, AHR (Homo sapiens, UniProt P35869).
T2 construct: endogenous in cells; host or cells: HepG2 (human), transfected with a DRE-luciferase reporter only
T2 sequence (P35869 11-848): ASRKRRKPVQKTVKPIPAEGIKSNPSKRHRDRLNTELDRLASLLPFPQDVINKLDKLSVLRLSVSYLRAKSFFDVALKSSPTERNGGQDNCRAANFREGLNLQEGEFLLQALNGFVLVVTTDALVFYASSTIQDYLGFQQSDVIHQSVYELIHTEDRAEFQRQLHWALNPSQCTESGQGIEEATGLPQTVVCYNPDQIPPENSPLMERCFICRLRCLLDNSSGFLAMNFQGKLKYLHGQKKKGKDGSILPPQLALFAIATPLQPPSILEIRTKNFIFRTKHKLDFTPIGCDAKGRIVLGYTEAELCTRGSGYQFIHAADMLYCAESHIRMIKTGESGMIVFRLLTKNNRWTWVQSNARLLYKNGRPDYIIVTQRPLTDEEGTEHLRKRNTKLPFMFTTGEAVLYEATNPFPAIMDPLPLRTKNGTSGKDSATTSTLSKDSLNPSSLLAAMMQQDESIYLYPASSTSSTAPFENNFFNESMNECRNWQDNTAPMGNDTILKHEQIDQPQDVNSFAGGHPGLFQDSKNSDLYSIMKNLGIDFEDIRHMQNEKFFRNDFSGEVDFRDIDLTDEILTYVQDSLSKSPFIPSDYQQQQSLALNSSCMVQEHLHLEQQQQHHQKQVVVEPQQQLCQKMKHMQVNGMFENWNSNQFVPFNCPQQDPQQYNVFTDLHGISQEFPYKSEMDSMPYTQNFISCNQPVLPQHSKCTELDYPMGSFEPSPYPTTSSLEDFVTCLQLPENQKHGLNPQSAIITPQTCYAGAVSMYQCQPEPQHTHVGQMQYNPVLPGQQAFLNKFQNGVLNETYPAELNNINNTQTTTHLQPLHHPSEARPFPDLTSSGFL
In words: DRE-Luciferase Reporter Assay, HepG2 (agonist). In kind it is cell-based. Particulars: HepG2, Table 3; read-out: DRE-Luc HepG2 - Agonist: Average EC50. The gist of the method:
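Cells carrying a stably or transiently transfected DRE-luciferase reporter, plated overnight at 37 C, then given agonist for 6, 16 or 24 h before lysis and luciferase read-out. Signal scaled between no ligand (minimum) and activating ligand alone, e.g. TCDD (maximum); EC50 = concentration giving half-maximal luciferase activity.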

For `FC(F)(F)c1cccc(Nc2nc(-c3cncc(Cl)c3)cs2)c1` [I-91], the EC50 was 10 to 100 nM in assay [1] and under 10 nM in assay [2].
On the same counts, the results for `N#Cc1cccc(-n2cnc(Nc3cccc(C(F)(F)F)c3)n2)c1` [I-145] are over 1000 nM and under 10 nM.
Consider `O=C(O)c1cccc(/N=N/c2cc(-c3csc(Nc4cccc(C(F)(F)F)c4)n3)ccc2F)c1` [I-173], for which the EC50 in assay [1] and in assay [2] was 100 to 1000 nM in each case.
As to `Nc1cncc(-c2csc(Nc3cccc(C(F)(F)F)c3)n2)c1` [I-164], the 50% effective concentration (EC50) in assay [1] and in assay [2] was under 10 nM throughout.
`Nc1cc(-c2csc(Nc3cccc(C(F)(F)F)c3)n2)ccc1F` [I-163]: the EC50 in assay [1] and in assay [2] was under 10 nM each time.
As to `N#Cc1cc(-c2csc(Nc3cccc(C(F)(F)F)c3)n2)c[n+]([O-])c1` [I-100], the half-maximal effective concentration (EC50) in assay [1] is over 1000 nM; in assay [2], under 10 nM.
Regarding `CNc1cc(-c2csc(Nc3cccc(C(F)(F)F)c3)n2)ccn1` [I-154], the EC50 in assay [1] is 10 to 100 nM; in assay [2], under 10 nM.
On the same counts, the results for `O=c1cc(-n2cnc(Nc3cccc(C(F)(F)F)c3)n2)cc[nH]1` [I-144] are over 1000 nM and 10 to 100 nM.
Turning to `COc1cc(-n2cnc(Nc3cccc(C(F)(F)F)c3)n2)ccn1` [I-143], the EC50 in assay [1] was over 1000 nM; in assay [2] it was 100 to 1000 nM.
As to `N#Cc1cccc(-c2noc(Nc3cccc(C(F)(F)F)c3)n2)c1` [I-157], the EC50 is over 1000 nM in assay [1] and 100 to 1000 nM in assay [2].
On the same counts, the results for `Fc1ccc(-c2csc(Nc3cccc(C(F)(F)F)c3)n2)cc1/N=N/c1cc(-c2csc(Nc3cccc(C(F)(F)F)c3)n2)ccc1F` [I-171] are over 1000 nM and over 1000 nM.
On the same counts, the results for `[O-][n+]1cccc(-c2csc(Nc3cccc(C(F)(F)F)n3)n2)c1` [I-121] are over 1000 nM and under 10 nM.
On the same counts, the results for `O=C(O)c1cc(/N=N/c2cccc(-c3csc(Nc4cccc(C(F)(F)F)c4)n3)c2)ccc1O` [I-162] are over 1000 nM and over 1000 nM.
For `FC(F)(F)c1cccc(Nc2nc(-c3cncc(NNc4cncc(-c5csc(Nc6cccc(C(F)(F)F)c6)n5)c4)c3)cs2)c1` [I-175], the EC50 in assay [1] and in assay [2] was 100 to 1000 nM in each case.
Regarding `N#Cc1cccc(-c2nc(Nc3cccc(C(F)(F)F)c3)no2)c1` [I-152], the EC50 in assay [1] and in assay [2] was over 1000 nM in each case.
Turning to `CN(C)c1cc(-c2csc(Nc3cccc(C(F)(F)F)c3)n2)ccn1` [I-153], the figures for the EC50 in assay [1] and in assay [2] were over 1000 nM and 10 to 100 nM, respectively.
On the same counts, the results for `Nc1ccnc(-c2csc(Nc3cccc(C(F)(F)F)c3)n2)c1` [I-168] are over 1000 nM and over 1000 nM.
On the same counts, the results for `Nc1ccccc1-c1csc(Nc2cccc(C(F)(F)F)c2)n1` [I-177] are under 10 nM and 10 to 100 nM.
For the molecule `[O-][n+]1cccc(-c2nsc(Nc3cccc(C(F)(F)F)c3)n2)c1` [I-117], the EC50 in assay [1] was over 1000 nM; in assay [2], under 10 nM.
On the same counts, the results for `C[N+]1(C)CCN(C(=O)c2cccc(Nc3nc(-c4ccc[n+]([O-])c4)cs3)c2)CC1` [I-159] are over 1000 nM and over 1000 nM.
As to `N#Cc1cncc(-c2csc(Nc3cccc(C(F)(F)F)c3)n2)c1` [I-87], the EC50 in assay [1] is over 1000 nM; in assay [2] it was under 10 nM.
On to `O=C(Nc1cncc(-c2csc(Nc3cccc(C(F)(F)F)c3)n2)c1)Nc1cncc(-c2csc(Nc3cccc(C(F)(F)F)c3)n2)c1` [I-170], for which the EC50 in assay [1] and in assay [2] was 10 to 100 nM throughout.
For the molecule `O=c1cccc(-c2csc(Nc3cccc(C(F)(F)F)c3)n2)[nH]1` [I-130], the EC50 in assay [1] and in assay [2] was under 10 nM throughout.
For `O=C(O)c1cc(/N=N/c2ccc(F)c(-c3csc(Nc4cccc(C(F)(F)F)c4)n3)c2)ccc1O` [I-179], the EC50 in assay [1] was over 1000 nM; in assay [2], 100 to 1000 nM.
Turning to `N#Cc1cccc(-c2cnc(Nc3cccc(C(F)(F)F)c3)o2)c1` [I-112], the EC50 in assay [1] is over 1000 nM; in assay [2] it was under 10 nM.
On the same counts, the results for `O=[N+]([O-])c1cccc(-c2csc(Nc3cccc(C(F)(F)F)n3)n2)c1` [I-89] are over 1000 nM and under 10 nM.
On the same counts, the results for `OCc1cccc(-c2csc(Nc3cccc(C(F)(F)F)c3)n2)c1` [I-125] are over 1000 nM and 10 to 100 nM.
With `O=c1ccc(-c2csc(Nc3cccc(C(F)(F)F)c3)n2)c[nH]1` [I-83], the EC50 is 100 to 1000 nM in assay [1] and under 10 nM in assay [2].
On the same counts, the results for `O=C(O)c1cccc(/N=N/c2cc(-c3csc(Nc4cccc(C(F)(F)F)c4)n3)c(F)cc2F)c1` [I-174] are 100 to 1000 nM and 100 to 1000 nM.
Taken in the same sequence, the figures for `Nc1ccc(F)c(-c2csc(Nc3cccc(C(F)(F)F)c3)n2)c1` [I-166] were under 10 nM and under 10 nM.
With `O=c1cc(-c2csc(Nc3cccc(C(F)(F)F)c3)n2)cc[nH]1` [I-93], the concentration giving a half-maximal response (EC50) was over 1000 nM in assay [1] and under 10 nM in assay [2].
Taken in the same sequence, the figures for `COC(=O)/C(C)=N/Nc1cccc(-c2csc(Nc3cccc(C(F)(F)F)c3)n2)c1` [I-167] were 100 to 1000 nM and 100 to 1000 nM.
On to `COC(=O)COc1cc(-c2csc(Nc3cccc(C(F)(F)F)c3)n2)ccn1` [I-160], for which the EC50 is over 1000 nM in assay [1] and under 10 nM in assay [2].
With `Nc1cc(-c2csc(Nc3cccc(C(F)(F)F)c3)n2)c(F)cc1F` [I-165], the EC50 in assay [1] and in assay [2] was under 10 nM each time.
In the case of `[O-][n+]1cccc(-n2cnc(Nc3cccc(C(F)(F)F)c3)n2)c1` [I-158], the EC50 is over 1000 nM in assay [1] and 10 to 100 nM in assay [2].
On the same counts, the results for `O=[N+]([O-])c1cc(-c2csc(Nc3cccc(C(F)(F)F)c3)n2)c[n+]([O-])c1` [I-120] are 100 to 1000 nM and under 10 nM.
For the molecule `CCCOc1cc(-c2csc(Nc3cccc(C(F)(F)F)c3)n2)ccn1` [I-155], the EC50 in assay [1] was over 1000 nM; in assay [2], 10 to 100 nM.
For the molecule `CSc1cccc(Nc2nc(-c3cccc([N+](=O)[O-])c3)cs2)c1` [I-136], the results for the EC50 in assay [1] and in assay [2] were 100 to 1000 nM and under 10 nM, respectively.

Broadly, the EC50 is the concentration giving half of the maximal effect.

The values are drawn from patent US12030876B2, “Aryl hydrocarbon receptor (AHR) agonists and uses thereof” (Ikena Oncology, Inc., priority 2019, dated 2024).
